The values below come from article PMC8524670 (Pharmacology Research & Perspectives, 2021).

In one series the target is T1, CYP1A2 (Homo sapiens, UniProt P05177).
T1 sequence (P05177 1-516): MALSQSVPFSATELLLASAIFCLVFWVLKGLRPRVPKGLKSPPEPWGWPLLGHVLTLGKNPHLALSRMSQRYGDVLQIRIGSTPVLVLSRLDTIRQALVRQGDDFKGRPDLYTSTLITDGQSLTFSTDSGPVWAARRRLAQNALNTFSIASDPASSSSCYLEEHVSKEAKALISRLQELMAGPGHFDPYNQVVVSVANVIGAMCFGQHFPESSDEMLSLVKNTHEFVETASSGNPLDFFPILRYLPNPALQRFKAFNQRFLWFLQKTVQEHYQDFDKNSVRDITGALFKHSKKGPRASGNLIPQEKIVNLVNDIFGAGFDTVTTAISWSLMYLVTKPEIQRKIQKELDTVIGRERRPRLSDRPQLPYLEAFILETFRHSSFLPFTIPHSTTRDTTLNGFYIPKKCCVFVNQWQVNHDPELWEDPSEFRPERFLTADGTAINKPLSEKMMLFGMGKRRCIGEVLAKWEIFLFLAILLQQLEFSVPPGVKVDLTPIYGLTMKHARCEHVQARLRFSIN
The series can be described thus: biochemical. Format: in vitro ADME.

The target in the next series is T2, human BCRP (Homo sapiens, UniProt Q9UNQ0).
T2 sequence (Q9UNQ0 1-655): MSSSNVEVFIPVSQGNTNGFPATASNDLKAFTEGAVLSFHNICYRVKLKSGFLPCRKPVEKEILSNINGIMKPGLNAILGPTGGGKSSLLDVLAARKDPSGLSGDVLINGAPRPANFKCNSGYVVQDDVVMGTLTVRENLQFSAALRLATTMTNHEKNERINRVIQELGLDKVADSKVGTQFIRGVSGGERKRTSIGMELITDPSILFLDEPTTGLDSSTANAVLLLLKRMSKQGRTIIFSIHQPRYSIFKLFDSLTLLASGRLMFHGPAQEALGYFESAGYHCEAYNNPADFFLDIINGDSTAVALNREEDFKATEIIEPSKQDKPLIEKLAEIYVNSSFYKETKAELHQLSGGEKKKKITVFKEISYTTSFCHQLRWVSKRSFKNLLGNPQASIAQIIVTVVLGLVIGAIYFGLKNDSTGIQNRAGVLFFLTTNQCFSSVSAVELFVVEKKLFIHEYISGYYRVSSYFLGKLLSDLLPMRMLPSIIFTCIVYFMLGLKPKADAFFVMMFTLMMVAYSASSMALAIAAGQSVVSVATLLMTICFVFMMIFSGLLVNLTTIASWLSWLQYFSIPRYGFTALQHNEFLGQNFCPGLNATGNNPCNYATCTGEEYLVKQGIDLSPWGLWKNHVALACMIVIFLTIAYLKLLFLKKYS
The experiment in a line: BCRP transportation in inside-out vesicles. Format: in vitro ADME. The conditions noted are these: uptake ratio ≥2-fold indicates substrate.

Series [1] has as its target T3, CYP2B6 (Homo sapiens, UniProt P20813).
T3 sequence (P20813 1-491): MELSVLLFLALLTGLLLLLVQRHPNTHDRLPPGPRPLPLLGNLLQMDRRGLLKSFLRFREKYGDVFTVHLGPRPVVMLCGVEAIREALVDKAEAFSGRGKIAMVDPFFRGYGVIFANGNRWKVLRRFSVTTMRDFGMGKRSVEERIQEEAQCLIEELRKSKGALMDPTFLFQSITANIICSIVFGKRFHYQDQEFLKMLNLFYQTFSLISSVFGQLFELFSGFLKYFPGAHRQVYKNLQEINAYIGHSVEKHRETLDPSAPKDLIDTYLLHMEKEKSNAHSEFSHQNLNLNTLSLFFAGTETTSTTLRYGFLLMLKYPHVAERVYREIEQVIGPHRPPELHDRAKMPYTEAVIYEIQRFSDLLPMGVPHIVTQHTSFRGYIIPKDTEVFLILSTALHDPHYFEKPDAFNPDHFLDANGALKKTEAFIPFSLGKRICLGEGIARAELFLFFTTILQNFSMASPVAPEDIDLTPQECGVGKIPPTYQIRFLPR
The series can be described thus: Time-dependent CYP inhibition in HLMs. The conditions noted are these: 10 µM zanubrutinib, 30 min pre-incubation with HLMs and NADPH.

In series [2] the target is T3, CYP2B6. The series can be described thus: CYP reversible inhibition in HLMs. Format: in vitro ADME.
For series [3] the following is noted: cited from earlier work.
Another series concerns the target P-gp (Homo sapiens, UniProt P08183). The settings on record: coadministration of zanubrutinib; cited from earlier work.
The next series deals with T4, CYP2C8 (Homo sapiens, UniProt P10632).
T4 sequence (P10632 1-490): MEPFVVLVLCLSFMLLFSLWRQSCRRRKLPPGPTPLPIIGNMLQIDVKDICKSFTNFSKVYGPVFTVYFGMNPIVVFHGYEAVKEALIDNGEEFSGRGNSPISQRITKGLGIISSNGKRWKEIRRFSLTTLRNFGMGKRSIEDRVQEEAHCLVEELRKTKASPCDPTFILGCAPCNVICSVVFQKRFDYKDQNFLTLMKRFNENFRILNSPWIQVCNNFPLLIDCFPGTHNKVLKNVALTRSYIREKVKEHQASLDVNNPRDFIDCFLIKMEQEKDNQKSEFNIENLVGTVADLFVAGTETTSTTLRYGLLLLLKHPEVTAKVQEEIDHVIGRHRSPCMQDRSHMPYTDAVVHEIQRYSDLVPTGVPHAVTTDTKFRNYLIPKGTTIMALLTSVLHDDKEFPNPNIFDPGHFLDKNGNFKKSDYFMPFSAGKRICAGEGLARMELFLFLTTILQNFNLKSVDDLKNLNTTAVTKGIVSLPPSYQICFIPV
The experiment in a line: CYP reversible inhibition in HLMs. The settings on record: amodiaquine.

Structures are written as SMILES.

One may read the IC50 as the concentration that gives 50% inhibition. By Ki is commonly meant the equilibrium dissociation constant of an inhibitor or competing ligand from its target. Low values mean higher affinity, high ones lower affinity.

Chain of P-gp (P08183 whole entry): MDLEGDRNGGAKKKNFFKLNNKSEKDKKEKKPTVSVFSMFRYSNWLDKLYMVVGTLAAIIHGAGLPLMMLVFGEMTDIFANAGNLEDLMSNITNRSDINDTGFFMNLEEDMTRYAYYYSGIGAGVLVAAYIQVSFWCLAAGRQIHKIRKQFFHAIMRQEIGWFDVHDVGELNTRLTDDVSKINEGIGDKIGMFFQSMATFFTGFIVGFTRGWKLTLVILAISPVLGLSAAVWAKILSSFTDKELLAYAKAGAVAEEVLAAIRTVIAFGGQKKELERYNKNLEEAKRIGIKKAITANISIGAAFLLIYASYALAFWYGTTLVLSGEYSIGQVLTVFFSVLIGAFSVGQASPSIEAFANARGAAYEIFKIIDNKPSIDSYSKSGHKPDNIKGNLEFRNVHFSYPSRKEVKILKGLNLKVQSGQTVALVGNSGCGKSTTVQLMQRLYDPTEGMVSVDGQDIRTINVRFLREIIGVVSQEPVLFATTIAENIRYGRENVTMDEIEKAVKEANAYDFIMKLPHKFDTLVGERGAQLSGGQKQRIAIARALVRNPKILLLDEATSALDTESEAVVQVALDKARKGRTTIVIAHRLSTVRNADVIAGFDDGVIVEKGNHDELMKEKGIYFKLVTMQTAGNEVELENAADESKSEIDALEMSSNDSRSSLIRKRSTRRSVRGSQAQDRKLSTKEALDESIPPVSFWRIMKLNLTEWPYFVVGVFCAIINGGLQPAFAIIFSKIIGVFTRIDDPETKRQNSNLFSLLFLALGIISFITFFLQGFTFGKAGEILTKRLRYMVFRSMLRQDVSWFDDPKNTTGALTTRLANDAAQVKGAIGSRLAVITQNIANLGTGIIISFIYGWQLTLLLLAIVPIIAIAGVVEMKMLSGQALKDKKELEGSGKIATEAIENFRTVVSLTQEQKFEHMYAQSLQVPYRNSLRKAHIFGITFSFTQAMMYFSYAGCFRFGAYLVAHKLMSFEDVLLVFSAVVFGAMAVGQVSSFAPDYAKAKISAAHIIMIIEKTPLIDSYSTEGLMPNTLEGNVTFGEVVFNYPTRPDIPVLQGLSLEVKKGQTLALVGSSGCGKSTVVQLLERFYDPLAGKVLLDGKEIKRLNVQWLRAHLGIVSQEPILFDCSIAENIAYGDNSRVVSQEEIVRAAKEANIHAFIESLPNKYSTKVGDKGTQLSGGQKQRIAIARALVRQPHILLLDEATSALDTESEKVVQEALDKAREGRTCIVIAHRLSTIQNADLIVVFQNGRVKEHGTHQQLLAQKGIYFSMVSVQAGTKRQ

`C=CC(=O)N1CCC([C@@H]2CCNc3c(C(N)=O)c(-c4ccc(Oc5ccccc5)cc4)nn32)CC1` [zanubrutinib]: the IC50 on CYP1A2 and at CYP2B6 [2] was 121 µM throughout. For the same compound, the Ki stood at 60.5 µM at CYP1A2 (Ki, phenacetin, Ki = IC50/2); 47.8 µM at CYP1A2 (Kiu, phenacetin, unbound Ki); 60.5 µM on CYP2B6 [2] (Ki, bupropion, Ki = IC50/2); 47.8 µM at CYP2B6 [2] (Kiu, bupropion, unbound Ki). In addition, the R1 is 1.00 at CYP1A2 (phenacetin, DDI basic model, hepatic); 1.00 at CYP2B6 [2] (bupropion, DDI basic model, hepatic); 1.05 at CYP2C8 (DDI basic model, hepatic). For the same compound, the Ah is 1.00 on CYP1A2 (phenacetin, static model term, liver inhibition); 1.00 on CYP2B6 [2] (bupropion, static model term, liver inhibition); 0.95 at CYP2C8 (static model term, liver inhibition). Moreover, the BCRP substrate status entry at human BCRP was “unlikely to be a substrate”. The “Percent loss of enzymatic activity” value at CYP2B6 [1] was found to be 15.5%. Further, the “C max (mean steady‐state concentration)” value in series [3] (160 mg BID, dose-escalation study, ref data on file) is 338 ng/mL. Further, in series [3] (estimated from population PK), the “ka (first‐order absorption rate constant)” value is given as 0.526. In addition, on P-gp, the “Increase of C max of P-gp probe digoxin” value is given as 34%.
